How the values were obtained:
[1] = system: MCF10A normal breast epithelial cells; assay: Seahorse oximetry, oxygen consumption rates (OCRs); assay type: cell-based, human; details: MitoQ 100 nM, 48 h
Method: (§1) Oxygen consumption rates (OCRs) were determined on a Seahorse XF96 bioenergetic analyzer using the XF cell Mito stress kit (Agilent Technologies®), according to manufacturer's recommendations. Briefly, MDA-MB-231 (10^4 cells/well), SkBr3 (10^4 cells/well), MDA-MB-436 (10^4 cells/well) or MCF10A (10^5 cells/well) were plated on XF96 culture plates 16 h before experiments in DMEM containing 10% FBS, and treated ±MitoQ for 48 h. On the day of analysis, culture media were replaced by DMEM containing 10 mM glucose, 2 mM glutamine, 1.85 g/L NaCl, 3 mg/L phenol red, pH 7.4. Cells were incubated for 1 h in a CO2-free incubator before analysis. Sequentially, basal OCR was acquired without treatment; ATP-linked OCR after the addition of 1 μM of ATP synthase inhibitor oligomycin; maximal OCR after mitochondrial potential disruption using 1 μM of ionophore carbonyl cyanide-4-(trifluoromethoxy) phenylhydrazone (FCCP); and non-mitochondrial OCR after the addition of 0.5 μM of Complex I inhibitor rotenone together with 0.5 μM of Complex III inhibitor antimycin A. All data were normalized by total protein content (Bio-Rad® Protein Assay; catalogue #5000006) measured right after oximetry. Mitochondrial OCRs (mtOCRs) were calculated by subtracting non-mitochondrial OCRs to the corresponding basal, maximal and ATP-linked OCRs.

[2] = system: MDA-MB-436 breast cancer cells; assay: Seahorse oximetry, oxygen consumption rates (OCRs); assay type: cell-based, human; details: MitoQ 100 nM, 48 h
Method: as §1

MDA-MB-231 cells = assay: Cell invasion, Boyden chamber; assay type: cell-based, human; details: MitoQ 100 nM, 48 h
Method: (§2) Cell chemotaxis was assayed in a 48-well micro-chemotaxis chamber (Neuroprobe® AP48) with polycarbonate porous membrane (8-μm diameter, Neuroprobe® PFB8) coated with 5 μg/mL of fibronectin, according to manufacturer's instructions. Briefly, MDA-MB-231 (20,000 cells/well), SkBr3 (40,000 cells/well) or MDA-MB-436 (80,000 cells/well) cells were seeded in the upper compartment in culture media deprived of FBS, and 0.2% (v/v) FBS-containing medium (for MDA-MB-231 and MDA-MB-436 cells) or 10% (v/v) FBS-containing medium supplemented with 10 ng/mL of human EGF (PrepoTech®, cat #AF-100-15) (for SkBr3 cells) were used as chemo-attractants. Cells were allowed to invade through the membrane overnight. Membranes were then washed with PBS, fixed in methanol, and stained with crystal violet (0.23% v/v). Pictures were acquired under an Axiovert™ 40 CFL microscope (Zeiss®) equipped with a MRC camera (Zeiss®). Quantification was performed using the Image J software.

MDA-MB-436 cells = assay: Cell invasion, Boyden chamber; assay type: cell-based, human; details: MitoQ 100 nM, 48 h
Method: as §2

SkBr3 cells = assay: Cell invasion, Boyden chamber; assay type: cell-based, human; details: MitoQ 100 nM, 48 h
Method: as §2

[3] = system: murine 4T1 breast cancer cells; assay: Cell viability, CellTiter-Glo; assay type: cell-based, mouse; details: increasing doses of DXR ±100 nM MitoQ, 48 h
Method: Cells were plated in 96-well plates and left to adhere for 16 hours. In order to avoid reaching full confluence at the endpoint, starting cell count was defined according to doubling time and the duration of the experiment. Following adhesion, cells were treated with the indicated compounds for 48 h, after which staining was done with a CellTiter-Glo Luminescent Cell Viability assay (Promega®, catalogue #G7570), according to supplier's instructions. This method is based on the quantification of intracellular ATP levels.

4T1 cells = assay: Invasion, Matrigel-coated transwells; assay type: cell-based, mouse; details: 0.1 μg/mL DXR + 100 nM MitoQ
Method: Previous to migration and invasion assays, cells were pretreated with the indicated amounts of drugs for 16 h, and left to recover for 6 h in full culture medium. Migration assays were performed in a NeuroProbe® standard 48-well chemotaxis chamber according to manufacturer's instructions. Briefly, the bottom chamber was filled with DMEM containing 0.5% serum as a chemo-attractant. Fifty thousand cells were seeded in the upper chamber in the same medium but without serum ±MitoQ where indicated, and allowed to migrate overnight through an 8-μm pore-size polycarbonate membrane. A similar stimulation protocol was used for invasion assays, with the difference of using Matrigel-coated transwells (Corning®). With MCF7 cells, membranes were previously incubated for 30 min with a solution of Vitronectin 10 μg/ml (Sigma-Aldrich®, #SRP3186). Migrated/invaded cells were fixed and stained with 100 μl of a 0.23% crystal violet solution (Sigma-Aldrich®, #C0775) for 10 min before counting on a SpectraMax™ i3 spectrophotometer equipped with a MiniMax imaging cytometer, using the SoftMax Pro software. Data were normalized to vehicle-treated cells (control).

COC1=C(OC)C(=O)C(CCCCCCCCCC[P+](c2ccccc2)(c2ccccc2)c2ccccc2)=C(C)C1=O [MitoQ]
OCRs [1]: reduced | basal, maximal and ATP-linked OCRs [2]: repressed | invasive capability (MDA-MB-231 cells): highly significantly reduced | cell invasion (MDA-MB-436 cells): inhibited | invasive capability (SkBr3 cells): highly significantly reduced | DXR-induced cell killing [3]: did not interfere | DXR-stimulated cell invasion (4T1 cells): inhibited
